Values quoted from earlier work in patent US7682636B2 (Metaproteomics, LLC, priority 2001, dated 2010).

Key:
[1] = test system: osteoarthritis of the knee in outpatients; conditions: 1500 mg glucosamine sulfate per day versus 1200 mg ibuprofen
COX-2 over COX-1 = conditions: reported, background

N[C@H]1C(O)O[C@H](CO)[C@@H](O)[C@@H]1O.O=S(=O)(O)O (stereo partly drawn) [glucosamine, glucosamine sulfate]
pain scores [1]: difference between the two groups turned significantly in favor of glucosamine by week eight

CC(C)Cc1ccc(C(C)C(=O)O)cc1 (stereo not drawn) [ibuprofen]
pain scores [1]: pain scores decreased faster during the first two weeks in the ibuprofen patients than in the glucosamine-treated patients

CC(=O)Oc1ccccc1C(=O)O [aspirin]
COX-2 specificity (COX-2 over COX-1): 0.6
